Measured values as given in publication PMC4357699, “Identification of a second GTP-bound magnesium ion in archaeal initiation factor 2” (Nucleic Acids Research, 2015).

How the values were obtained:
Assay in all cases: nitrocellulose filter binding of [3H]GDP
Settings in all cases: read-out: apparent Kd
[1] = biological target: T1, Ss-aIF2 (aIF2 heterotrimer, αβγ) (Saccharolobus solfataricus, UniProt Q980A5)
T1 construct: gene eif2g; full heterotrimer of α, β and γ subunits, purified; gamma from pET15b-Ss-aIF2γ; with Translation initiation factor 2 subunit alpha; Translation initiation factor 2 subunit beta
T1 sequence (Q97Z79 whole entry): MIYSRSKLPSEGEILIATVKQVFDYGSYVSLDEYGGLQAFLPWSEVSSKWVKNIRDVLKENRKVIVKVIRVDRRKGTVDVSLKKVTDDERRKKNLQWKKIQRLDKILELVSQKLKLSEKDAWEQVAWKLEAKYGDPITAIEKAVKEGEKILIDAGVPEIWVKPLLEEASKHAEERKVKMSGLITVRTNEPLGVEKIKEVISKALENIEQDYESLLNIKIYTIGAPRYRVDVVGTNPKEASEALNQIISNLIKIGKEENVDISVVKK
T1 sequence (Q97W59 whole entry, further chain): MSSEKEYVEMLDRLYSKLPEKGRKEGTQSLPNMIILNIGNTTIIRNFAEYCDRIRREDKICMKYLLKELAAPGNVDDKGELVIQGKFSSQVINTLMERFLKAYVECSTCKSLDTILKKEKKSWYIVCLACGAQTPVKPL
T1 sequence (Q980A5 whole entry): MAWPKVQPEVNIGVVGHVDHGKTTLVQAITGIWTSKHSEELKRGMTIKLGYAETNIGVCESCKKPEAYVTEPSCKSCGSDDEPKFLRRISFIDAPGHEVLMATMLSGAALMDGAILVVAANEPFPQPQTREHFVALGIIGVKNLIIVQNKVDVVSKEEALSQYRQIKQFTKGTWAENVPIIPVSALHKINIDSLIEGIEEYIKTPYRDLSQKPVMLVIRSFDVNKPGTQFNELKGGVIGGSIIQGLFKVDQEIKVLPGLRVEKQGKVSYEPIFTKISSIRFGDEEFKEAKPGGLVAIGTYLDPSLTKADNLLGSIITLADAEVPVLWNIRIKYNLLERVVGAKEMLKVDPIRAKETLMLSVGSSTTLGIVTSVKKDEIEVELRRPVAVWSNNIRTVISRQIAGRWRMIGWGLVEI

[2] = biological target: T2, Ss-aIF2 (aIF2 heterotrimer, αβγ) (Saccharolobus solfataricus, UniProt Q980A5, H97A)
T2 construct: gene eif2g; full heterotrimer of α, β and γ subunits, purified; gamma from pET15b-Ss-aIF2γ; with Translation initiation factor 2 subunit alpha; Translation initiation factor 2 subunit beta
T2 sequence (Q980A5 whole entry H97A): as the sequence (Q980A5 whole entry) above, with H97A counted along it
T2 sequence (Q97W59 whole entry, further chain): as the sequence (Q97W59 whole entry, further chain) above
T2 sequence (Q97Z79 whole entry, further chain): as the sequence (Q97Z79 whole entry) above

[3] = biological target: T3, Ss-aIF2 (aIF2 heterotrimer, αβγ) (Saccharolobus solfataricus, UniProt Q980A5, D19A)
T3 construct: gene eif2g; full heterotrimer of α, β and γ subunits, purified; gamma from pET15b-Ss-aIF2γ; with Translation initiation factor 2 subunit alpha; Translation initiation factor 2 subunit beta
T3 sequence (Q97W59 whole entry): as the sequence (Q97W59 whole entry, further chain) above
T3 sequence (Q97Z79 whole entry, further chain): as the sequence (Q97Z79 whole entry) above
T3 sequence (Q980A5 whole entry D19A): as the sequence (Q980A5 whole entry) above, with D19A counted along it

- Kd [1]: 520 ± 120 nM
- Kd [2]: 340 ± 100 nM
- Kd [3]: 240 ± 100 nM
SMILES: Nc1nc2c(ncn2[C@@H]2O[C@H](COP(=O)(O)OP(=O)(O)O)[C@@H](O)[C@H]2O)c(=O)[nH]1 [GDP]
